Entries after “also recorded” stand apart in the source; their conditions may differ.
Tests used:
[1] = system: β-Gal-specific mucosal S-IgA; assay: β-Gal-specific secretory IgA in bronchial alveolar and vaginal lavages after i.n. immunisation; format: in vivo, Balb/c mice; conditions: for expression of β-Gal-specific S-IgA titers (lavage not named, FIG. 6): 20 up to 30 μg glycolipid, probably vaginal lavage
Description: Co-administration of β-Gal with 10 μg glycolipids 1, 5 and 6 induced β-Gal-specific mucosal S-IgA responses in Balb/c mice. Balb/c mice were immunized by the i.n. or s.c. route with β-Gal alone or together with glycolipids 1, 5 and 6 three times at 2-wk intervals. 10 days after the final immunization, the immunized mice were sacrificed. β-Gal-specific S-IgA titers were determined in vaginal lavage (VL) and Bronchial alveolar lavage (BAL) of mice immunized with β-Gal co-administered with glycolipids 1, 5 and 6 by the intranasal route. […] Bars represent mean Ab titer or amount±SE in each group. Each group consists of five mice. Data are representative of three separate experiments.
Co-administration of β-Gal with 20 up to 30 μg glycolipids 5 and 6 induced β-Gal-specific mucosal S-IgA responses in Balb/c mice. Balb/c mice were immunized by the i.n. or s.c. route with β-Gal alone or together with glycolipids 5 and 6 three times at 2-wk intervals. 10 days after the final immunization, the immunized mice were sacrificed. β-Gal-specific S-IgA titers were determined in vaginal lavage (VL) and Bronchial alveolar lavage (BAL) of mice immunized with β-Gal co-administered with glycolipids 5 and 6 by the intranasal route.
Experimental protocol: at day 38, mice were sacrificed and the final sampling was performed. Vaginal and lung lavages were obtained by flushing the organs with 1 ml of PBS supplemented with 50 mM EDTA, 0.1% BSA, and 10 mM PMSF. Lavages were then centrifuged to remove debris (10 min at 3000×g), and supernatant fluids were stored at −20° C. To determine the concentration of total IgA present in the lung and vaginal lavages, serial dilutions of the corresponding samples were incubated in microtiter plates that were previously coated with goat anti-mouse IgA (Sigma Chemie), as capture antibodies (100 μl/well). Serial dilutions of purified mouse IgA (Sigma Chemie) were used to generate a standard curve.

[2] = system: β-Gal-specific IgG isotypes; assay: IgG isotype ELISA (IgG, IgG1, IgG2a) in sera of vaccinated mice; format: in vivo, Balb/c mice; conditions: for enhancement of β-Galactosidase-specific IgG secretion vs β-Gal alone / increase of β-Gal-specific IgG1 secretion vs β-Gal alone / increase of β-Gal-specific IgG2a secretion vs β-Gal alone / increase of β-Gal specific IgG1 secretion vs β-Gal alone / secretion of IgG2a isotype vs β-Gal alone: 10 μg glycolipid; for increase of β-Gal specific IgG1 secretion vs β-Gal alone / secretion of IgG2a isotype vs β-Gal alone: s.c. (parenteral); for enhancement of β-Galactosidase-specific IgG2a isotype vs β-Gal alone: 20 or 30 μg glycolipid, dose-dependent
Description: Co-administration of β-Gal with 10 μg glycolipids 1, 5 and 6 induced β-Gal-specific systemic IgG responses in Balb/c mice. Balb/c mice were immunized by the i.n. or s.c. route with β-Gal alone or together with glycolipids 1, 5 and 6 three times at 2-wk intervals. 10 days after the final immunization, the immunized mice were sacrificed. The levels of β-Gal-specific titers of IgG isotypes were determined in Sera of mice immunized by the i.n. (A) and s.c. (B) route. […] Bars represent mean Ab titer or amount±SE in each group. Each group consists of five mice. Data are representative of three separate experiments.
Co-administration of β-Gal with 20 or 30 μg glycolipids 5 and 6, respectively, induced β-Gal-specific systemic IgG responses in Balb/c mice. Balb/c mice were immunized by the i.n. or s.c. route with β-Gal alone or together with glycolipids 5 and 6 three times at 2-wk intervals. 10 days after the final immunization, the immunized mice were sacrificed. The levels of β-Gal-specific titers of IgG isotypes were determined in Sera of mice immunized by the i.n. (A) and s.c. (B) route. […] The parenteral administration of with β-Gal co-administered with 20 μg glycolipids 5 and 6 enhanced the β-Galactosidase-specific IgG1 isotype titer (>250000) in comparison to animals which were immunized with β-Gal alone. Bars represent mean Ab titer or amount±SE in each group. Each group consists of five mice. Data are representative of two separate experiments.
Isotyp ELISA: 96-well Nunc-Immuno MaxiSorp assay plates (Nunc, Roskilde, Denmark) were coated with 100 μl of β-Gal (Boehringer, Mannheim, Germany) at 5 μg/ml in 0.05 M carbonate buffer (pH 8.2) per well. Serial two-fold dilutions of sera or lavages in PBS with 1% BSA and 0.05% Tween 20 were added (100 μl/well), and plates incubated for 2 h at 37° C. After washing, biotin-conjugated rat anti-mouse IgG1 or IgG2a (Pharmingen, Hamburg, Germany) were added to determine IgG subclasses. Plates were incubated for an additional 1 h at 37° C. After four washes, 100 μl of peroxidase-conjugated streptavidin (Pharmingen) was added to cells and plates incubated at 37° C. for 30 min. After four washes, reactions were developed with ABTS in 0.1 M citrate-phosphate buffer (pH 4.35) containing 0.01% H2O2. To determine the concentration of IgG subclasses in serum, standard curves were obtained by coating the wells with an isotype-specific goat anti-mouse IgG, and then by incubating with purified mouse IgG1 or IgG2a antibodies (Dianova, Hamburg, Germany).

[3] = 10 μg glycolipid + 30 μg β-Gal, day 38
[4] = i.n. co-administration with β-Gal (FIG. 9 and FIG. 10)
[5] = s.c. co-administration with β-Gal (FIG. 9 and FIG. 10)
[6] = 20 up to 30 μg glycolipid + 30 μg β-Gal, day 38

SMILES	β-Galactosidase-specific sIgA titer in bronchial alveolar lavage (BAL) [1, 3]	IgG1 / IgG2a isotype pattern (Th2 / Th1) [2, 4]	enhancement of β-Galactosidase-specific IgG secretion vs β-Gal alone ([2]; i.n.)	increase of β-Gal-specific IgG1 secretion vs β-Gal alone ([2]; i.n.)	increase of β-Gal-specific IgG2a secretion vs β-Gal alone ([2]; i.n.)	increase of β-Gal specific IgG1 secretion vs β-Gal alone [2]	secretion of IgG2a isotype vs β-Gal alone [2]	IgG1 / IgG2a isotype pattern (Th2 / Th1) [2, 5]	β-Galactosidase-specific sIgA in vaginal lavages [1, 3]	β-Galactosidase-specific sIgA titer in bronchial alveolar lavage (BAL) [1, 6]	expression of β-Gal-specific S-IgA titers (lavage not named, FIG. 6) [1]	enhancement of β-Galactosidase-specific IgG2a isotype vs β-Gal alone ([2]; i.n.) [fold]	enhancement of β-Galactosidase-specific IgG secretion vs β-Gal alone ([2]; s.c.) [fold]
CCCCCCCC/C=C\CCCCCCCCOCC(COCCCCCCCC/C=C\CCCCCCCC)O[C@@H]1O[C@H](CO)[C@@H](O[C@H]2O[C@H](CO)[C@@H](O)[C@H](O)[C@H]2O)[C@H](O)[C@H]1O (relative stereo) [glycolipid 1, 1,3-Di-O[cis-9-octadecenyl]-2-O-[4′-O-(α-D-glycopyranosyl)-β-D-glycopyranosyl]-sn-glycerol]	below the detection level	dominant Th2 pattern	no effect	no effect	no effect	2.5 fold	no enhanced secretion	dominant Th2 pattern					
CCCCCCCCCCCCCCOCC(COCCCCCCCCCCCCCC)O[C@@H]1O[C@H](CO)[C@@H](O[C@H]2O[C@H](CO)[C@@H](O)[C@H](O)[C@H]2O)[C@H](O)[C@H]1O [glycolipid 5, 1,3-Di-O-tetradecyl-2-O-[4′-O-(α-D-glucopyranosyl)-β-D-glucopyranosyl]-sn-glycerol]	> 1/130 and significant increase	dominant Th2 pattern	29 fold	50 fold	6 fold	2.2 fold	no enhanced secretion	dominant Th2 pattern	enhanced	> 1/170 and significant increase	comparable with titer of the control groups	7	7
CCCCCCCCCCCCCCOCC(COCCCCCCCCCCCCCC)O[C@@H]1O[C@H](CO[C@H]2O[C@H](CO)[C@H](O)[C@H](O)[C@H]2O)[C@@H](O)[C@H](O)[C@H]1O [glycolipid 6, 1,3-di-O-tetradecyl-2-O-[6′-O-(α-D-galactopyranosyl)-β-D-glucopyranosyl]-sn-glycerol]	below the detection level	comparable expression of IgG1 and IgG2a isotypes	8 fold	24 fold	1.8 fold	no effect	no enhanced secretion	dominant Th2 response		comparable sIgA titers in BAL; also recorded: significant increase	comparable with titer of the control groups	7	
